Measured values taken from paper PMC4492579, “Potent and Selective Triazole-Based Inhibitors of the Hypoxia-Inducible Factor Prolyl-Hydroxylases with Activity in the Murine Brain” (PLoS ONE, 2015).
Counter-ions that a name gives are not always drawn.

Assays:
PHD2 [1] = target: T1, PHD2 (Homo sapiens, UniProt Q9GZT9); experiment: PHD2 antibody-based (AlphaScreen) in vitro hydroxylation assay
Description: (§1) Inhibition assays for PHD2 (AlphaScreen) [9], the KDMs (AlphaScreen) [17], BBOX [18] and FTO [19] were carried out as previously described. N-Terminally biotinylated 19-residue human HIF1α CODD peptide ([sequence]) used in the PHD2 inhibition assays was from GL Biochem (Shanghai). IC50 values were calculated using nonlinear regression with normalized dose-response fit using GraphPad Prism 5.

PHD2 [2] = target: T1, PHD2; experiment: Competition-based NMR reporter ligand displacement assay ([13C]-2OG / [13C]-CODD); type: binding; conditions: 50 μM apo-PHD2, 400 μM Zn(II), 400 μM competitor
Description: For 2OG displacement assays, selective ^1H-^13C 1D-HSQC experiments were conducted at 700 MHz using a Bruker Avance III spectrometer equipped with an inverse TCI cryoprobe optimized for ^1H observation. The CLIP-HSQC sequence was used (without ^13C decoupling). Typical experimental parameters were as follows: acquisition time 0.58 s, relaxation delay 2 s, number of transients 256−1600. The 1JCH was set to 160 Hz. For the selective version of the experiment, a 6.8 ms Q3 180 degree pulse was used, and selective irradiation was applied at the appropriate [^13C] chemical shift. Three millimeter MATCH tubes with a 160 μL final sample volume were used. Solutions were buffered using Tris-D11 50 mM (pH 7.5) dissolved in 90% H2O and 10% D2O. Assays were conducted at 298 K in solutions typically containing 50 μM apo-PHD2, 400 μM Zn(II), 50 μM 1,2,3,4-[^13C]-2OG or [^13C]-labeled CODD (uniformly [^13C]-labeled at proline-564) and 400 μM competitor (except unlabeled CODD competitor used at 800 μM). Selective irradiation was applied at 30.5 ppm for [^13C]-2OG and 24.25 ppm for [^13C]-labeled CODD. Percentage displacement was calculated according to equation: (I−I0)/(Iblank−I0) where I 0 is the intensity of the reporter in the presence of protein but without inhibitor, I is the intensity of the reporter in the presence of protein and inhibitor, and I blank is the intensity of the reporter without protein or inhibitor.
The results reveal that the previously described inhibitor IOX2 displaces 2OG from PHD2 (S3A Fig), consistent with its predicted binding mode. […] Previous crystallographic studies have shown that the HIF substrate can still bind even when the 2OG active site is occupied by some, but not all, inhibitors.

[3] = test system: MCF-7, Hep3B and U2OS cells; experiment: Immunoblotting of HIF1α induction in MCF-7, Hep3B and U2OS cells; type: cell-based, human; conditions: immunoblot
Description: Human cell lines (RCC4, HeLa, Hep3B, MCF-7 and U2OS) were cultured in DMEM (D6546-500ML; Sigma Aldrich) each supplemented with 10% fetal bovine serum (F7524-500ML; Sigma Aldrich), 2 mM L-glutamine (G7513- 100ML; Sigma Aldrich), 50 units/ml of penicillin, and 50 μg/ml of streptomycin (P0781-100ML; Sigma Aldrich). The RCC4 cell line was a gift from C.H.C.M. Buys (University of Groningen, [2]), the HeLa and Hep3B cell lines were from the European Collection of Cell Cultures (ECACC), the MCF-7 cell line was from the American Type Culture Collection (ATCC) and the U2OS cell line was a gift from S.Galey (ICRF Clare Hall Laboratories, United Kingdom). Cells were treated either with DMSO (control) or compounds (dissolved in DMSO) and added directly into the cell culture medium to the desired final concentration for 4–5 h as previously described.
Cells were extracted using urea/SDS buffer (6.7 M urea, 10 mM Tris-HCl pH 6.8, 10% glycerol and 1% SDS) and processed for immunoblotting as described. […]

BBOX1 = target: T2, BBOX1 (Homo sapiens, UniProt O75936); experiment: BBOX fluoride-release / detection based fluorescence assay
T2 sequence (O75936 1-387): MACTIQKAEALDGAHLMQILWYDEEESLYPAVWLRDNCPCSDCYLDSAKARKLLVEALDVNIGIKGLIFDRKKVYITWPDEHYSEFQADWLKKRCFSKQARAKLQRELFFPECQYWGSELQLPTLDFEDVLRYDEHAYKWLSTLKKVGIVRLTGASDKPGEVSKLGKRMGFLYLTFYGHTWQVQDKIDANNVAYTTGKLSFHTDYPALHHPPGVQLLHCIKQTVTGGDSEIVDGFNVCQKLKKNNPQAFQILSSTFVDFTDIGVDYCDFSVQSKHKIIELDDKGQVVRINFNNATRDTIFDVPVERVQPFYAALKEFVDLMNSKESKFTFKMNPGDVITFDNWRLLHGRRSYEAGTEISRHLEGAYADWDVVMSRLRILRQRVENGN
Description: as §1

FTO = FTO (Homo sapiens, UniProt Q9C0B1); experiment: FTO LC-MS assay
Description: as §1

JARID1C (KDM5C) = JARID1C (KDM5C) (Homo sapiens, UniProt P41229); experiment: KDM AlphaScreen assay, JARID1C
Description: (§2) Inhibition assays for PHD2 (AlphaScreen) [9], the KDMs (AlphaScreen) [17], BBOX [18] and FTO [19] were carried out as previously described. […] IC50 values were calculated using nonlinear regression with normalized dose-response fit using GraphPad Prism 5.

JMJD3 (KDM6B) = JMJD3 (KDM6B) (Homo sapiens, UniProt O15054); experiment: KDM AlphaScreen assay, JMJD3
JMJD3 (KDM6B), sequence (O15054 whole entry): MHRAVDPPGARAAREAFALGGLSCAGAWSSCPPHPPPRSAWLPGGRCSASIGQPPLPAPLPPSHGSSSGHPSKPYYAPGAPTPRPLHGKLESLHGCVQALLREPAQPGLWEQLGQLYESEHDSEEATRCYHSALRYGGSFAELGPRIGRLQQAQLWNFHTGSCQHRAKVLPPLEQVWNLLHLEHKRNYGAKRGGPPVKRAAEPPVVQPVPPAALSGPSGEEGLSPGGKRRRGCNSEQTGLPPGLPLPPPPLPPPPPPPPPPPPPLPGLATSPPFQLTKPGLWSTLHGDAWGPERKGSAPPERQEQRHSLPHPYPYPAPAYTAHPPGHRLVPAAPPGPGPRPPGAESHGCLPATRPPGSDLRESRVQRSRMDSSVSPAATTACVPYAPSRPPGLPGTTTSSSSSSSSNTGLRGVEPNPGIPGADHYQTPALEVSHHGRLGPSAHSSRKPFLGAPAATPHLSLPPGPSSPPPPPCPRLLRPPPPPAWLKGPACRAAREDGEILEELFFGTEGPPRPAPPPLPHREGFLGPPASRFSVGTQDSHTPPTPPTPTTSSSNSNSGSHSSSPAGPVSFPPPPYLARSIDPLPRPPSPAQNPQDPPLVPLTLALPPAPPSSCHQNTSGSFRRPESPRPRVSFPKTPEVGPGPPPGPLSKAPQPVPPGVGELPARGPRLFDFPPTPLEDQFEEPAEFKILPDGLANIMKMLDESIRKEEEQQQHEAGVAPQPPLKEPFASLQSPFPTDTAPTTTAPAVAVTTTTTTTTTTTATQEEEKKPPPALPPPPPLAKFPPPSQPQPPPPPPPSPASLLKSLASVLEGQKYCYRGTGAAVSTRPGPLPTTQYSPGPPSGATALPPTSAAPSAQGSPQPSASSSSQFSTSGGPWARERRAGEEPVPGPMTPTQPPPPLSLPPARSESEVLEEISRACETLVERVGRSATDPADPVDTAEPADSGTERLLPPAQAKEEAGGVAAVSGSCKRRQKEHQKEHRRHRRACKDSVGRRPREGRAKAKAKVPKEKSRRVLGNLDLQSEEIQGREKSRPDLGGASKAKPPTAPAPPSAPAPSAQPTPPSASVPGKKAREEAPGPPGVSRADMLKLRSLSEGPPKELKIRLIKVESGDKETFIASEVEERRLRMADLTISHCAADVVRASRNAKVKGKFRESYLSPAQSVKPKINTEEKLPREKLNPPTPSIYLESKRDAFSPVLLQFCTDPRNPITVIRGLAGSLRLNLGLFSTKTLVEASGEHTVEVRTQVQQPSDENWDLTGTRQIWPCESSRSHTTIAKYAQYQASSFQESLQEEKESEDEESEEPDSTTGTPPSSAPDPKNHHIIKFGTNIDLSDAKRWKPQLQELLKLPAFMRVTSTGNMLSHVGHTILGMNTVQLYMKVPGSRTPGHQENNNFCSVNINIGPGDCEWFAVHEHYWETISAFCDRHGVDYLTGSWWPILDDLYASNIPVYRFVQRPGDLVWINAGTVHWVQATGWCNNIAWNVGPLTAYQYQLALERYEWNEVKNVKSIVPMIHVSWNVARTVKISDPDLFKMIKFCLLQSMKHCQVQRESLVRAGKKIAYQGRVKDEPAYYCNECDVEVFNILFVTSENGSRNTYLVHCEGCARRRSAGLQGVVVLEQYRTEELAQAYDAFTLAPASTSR
Description: as §2

FTO, sequence (Q9C0B1 whole entry): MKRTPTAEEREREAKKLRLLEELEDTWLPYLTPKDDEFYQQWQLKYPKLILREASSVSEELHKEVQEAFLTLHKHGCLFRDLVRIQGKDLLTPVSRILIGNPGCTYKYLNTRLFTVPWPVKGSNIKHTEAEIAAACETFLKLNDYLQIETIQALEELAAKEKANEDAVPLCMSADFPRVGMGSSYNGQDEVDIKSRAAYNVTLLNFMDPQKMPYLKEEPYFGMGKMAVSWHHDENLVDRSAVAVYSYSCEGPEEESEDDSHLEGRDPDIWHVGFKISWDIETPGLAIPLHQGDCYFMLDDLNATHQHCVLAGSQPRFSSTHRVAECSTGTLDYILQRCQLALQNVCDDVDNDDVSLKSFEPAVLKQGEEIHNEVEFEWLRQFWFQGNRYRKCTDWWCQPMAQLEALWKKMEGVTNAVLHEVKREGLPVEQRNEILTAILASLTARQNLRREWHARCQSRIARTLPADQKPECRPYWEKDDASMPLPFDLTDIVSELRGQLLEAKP
T1 sequence (Q9GZT9 whole entry): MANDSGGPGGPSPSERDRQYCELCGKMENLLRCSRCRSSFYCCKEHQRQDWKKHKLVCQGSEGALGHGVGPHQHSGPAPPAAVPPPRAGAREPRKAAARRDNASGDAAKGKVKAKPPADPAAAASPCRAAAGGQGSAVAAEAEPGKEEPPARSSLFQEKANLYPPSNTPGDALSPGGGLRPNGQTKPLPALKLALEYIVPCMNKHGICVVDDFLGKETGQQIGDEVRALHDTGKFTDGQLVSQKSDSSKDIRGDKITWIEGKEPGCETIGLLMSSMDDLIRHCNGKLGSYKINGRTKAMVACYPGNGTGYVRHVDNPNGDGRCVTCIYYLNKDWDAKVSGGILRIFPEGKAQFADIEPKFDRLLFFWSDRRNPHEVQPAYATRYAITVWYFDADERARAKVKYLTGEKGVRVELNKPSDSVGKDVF
JARID1C (KDM5C), sequence (P41229 whole entry): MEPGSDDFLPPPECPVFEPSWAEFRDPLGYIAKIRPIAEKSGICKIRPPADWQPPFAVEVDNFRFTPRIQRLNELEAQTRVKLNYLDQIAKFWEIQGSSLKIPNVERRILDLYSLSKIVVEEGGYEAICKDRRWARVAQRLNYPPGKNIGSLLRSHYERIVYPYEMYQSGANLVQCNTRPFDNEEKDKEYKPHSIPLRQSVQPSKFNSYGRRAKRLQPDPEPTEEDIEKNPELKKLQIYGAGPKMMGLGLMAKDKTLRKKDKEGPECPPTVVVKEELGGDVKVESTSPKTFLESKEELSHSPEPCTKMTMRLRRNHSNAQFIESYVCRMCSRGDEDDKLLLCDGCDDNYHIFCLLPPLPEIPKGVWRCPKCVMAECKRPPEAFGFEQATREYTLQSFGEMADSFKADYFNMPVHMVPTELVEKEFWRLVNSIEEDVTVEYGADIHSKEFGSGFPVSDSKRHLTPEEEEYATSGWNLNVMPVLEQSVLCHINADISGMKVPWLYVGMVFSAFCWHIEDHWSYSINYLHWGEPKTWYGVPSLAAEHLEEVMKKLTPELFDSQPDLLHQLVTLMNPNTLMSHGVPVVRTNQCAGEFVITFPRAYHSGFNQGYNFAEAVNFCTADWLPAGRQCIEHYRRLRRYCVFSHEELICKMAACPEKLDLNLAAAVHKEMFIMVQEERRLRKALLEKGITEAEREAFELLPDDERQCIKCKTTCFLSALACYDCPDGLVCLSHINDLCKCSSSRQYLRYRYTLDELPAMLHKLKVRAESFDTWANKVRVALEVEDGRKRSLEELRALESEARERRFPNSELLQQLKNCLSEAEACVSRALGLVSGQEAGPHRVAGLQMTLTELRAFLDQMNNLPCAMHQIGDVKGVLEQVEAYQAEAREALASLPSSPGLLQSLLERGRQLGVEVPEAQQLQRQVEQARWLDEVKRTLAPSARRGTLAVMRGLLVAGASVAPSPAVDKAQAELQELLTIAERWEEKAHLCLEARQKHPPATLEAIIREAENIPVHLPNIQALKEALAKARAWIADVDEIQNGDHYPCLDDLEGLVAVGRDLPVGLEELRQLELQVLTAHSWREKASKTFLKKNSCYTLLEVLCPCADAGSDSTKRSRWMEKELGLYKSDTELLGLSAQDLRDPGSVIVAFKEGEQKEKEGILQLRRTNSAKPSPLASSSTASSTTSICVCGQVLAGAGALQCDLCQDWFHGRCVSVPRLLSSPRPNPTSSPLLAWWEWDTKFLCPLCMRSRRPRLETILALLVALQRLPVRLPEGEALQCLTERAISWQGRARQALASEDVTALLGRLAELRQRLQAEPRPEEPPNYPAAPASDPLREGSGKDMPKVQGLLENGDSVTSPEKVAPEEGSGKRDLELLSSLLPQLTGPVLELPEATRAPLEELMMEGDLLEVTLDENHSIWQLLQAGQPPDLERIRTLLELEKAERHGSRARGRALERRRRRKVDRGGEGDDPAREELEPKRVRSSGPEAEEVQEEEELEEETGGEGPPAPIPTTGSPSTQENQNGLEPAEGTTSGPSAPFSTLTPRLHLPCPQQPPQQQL

Row | Compound | selectivity for PHD2 over all other tested enzymes (PHD2 [1]; from IC50 values of the 2OG oxygenase panel (Table 1)) | displacement of [13C]-2OG from PHD2 (PHD2 [2]) | displacement of [13C]-CODD from PHD2 (PHD2 [2]) | HIF1α induction [3] | IC50 (BBOX1) | IC50 (FTO) | IC50 (PHD2 [1]) | IC50 (JARID1C (KDM5C)) | IC50 (JMJD3 (KDM6B))
1 | O=C(O)CNC(=O)c1c(O)c2ccccc2n(Cc2ccccc2)c1=O [IOX2] | approximately 400 fold | displaces 2OG | not displaced | Induction of HIF1α levels were observed | 9.5 µM | 11 µM | – | – | –
2 | CC(C)(C)OC(=O)c1ccc(-n2[nH]cc(-n3ccnn3)c2=O)nc1 [IOX4, t-Butyl 6-(5-oxo-4-(1H-1,2,3-triazol-1-yl)-2,5-dihydro-1H-pyrazol-1-yl)nicotinate] | – | displaces 2OG | remained bound | Induction of HIF1α levels were observed | 73 µM | 49 µM | 0.0016 µM | > 100 µM | 1.4 µM
3 | O=C(O)c1ccc(-n2[nH]cc(-n3ccnn3)c2=O)nc1 [compound 1, 6-(5-oxo-4-(1H-1,2,3-triazol-1-yl)-2,5-dihydro-1H-pyrazol-1-yl)pyridine-3-carbocylic acid hydrochloride] | – | – | – | – | > 50 µM | 37 µM | 0.0048 µM | > 100 µM | > 20 µM
